Holding throughout (type): physicochemical
Data set [1] in a line: Dynamic vapour sorption (DVS) analysis in isotherm at 25° C. The following applies: for water still contained at the inflection at about 40% RH in desorption / weight change preserved in desorption up to 50% RH / change in weight in sorption at 20% RH / weight change in sorption at 70% RH / weight change in sorption at 90% RH / weight change at 0% RH in desorption / weight change in sorption at 30% RH: DVS isotherm 25° C.; for water still contained at the inflection at about 40% RH in desorption: about 40% RH (corresponds to about 4 water molecules); for weight change preserved in desorption up to 50% RH: stable up to 50% RH (corresponds to about 8 water molecules). As to the method: (§1) To check the stability of the samples DVS (Dynamic vapour sorption) measurements were made using the DVS Intrinsic SMS instrument. The weight change of the sample associated with the change in humidity in a chamber at constant temperature was determined. Each sample was weighed in a range from […], with mass change equal to ±150 mg and mass resolution equal to ±0.1 μg, and positioned in the instrument and analysed at 25° C.±0.1 and 40° C.±0.1 in a relative humidity range comprised between 0% RH and 90% RH with increments of 10% RH, accuracy equal to ±1% RH. Moreover, the sample is brought from 0-90-0% RH with stages of 10% RH. The duration of these stages is as a function of the stabilization of the weight: if the weight change remains less than 0.002 dm (%)/dt (min) for 10 min, it goes on to the next stage. However, the stabilization for each stage cannot last more than 6 hours and in that case the instrument passes on to the next stage. The last stage contemplates the stabilization of the sample at 0% RH for 4 hours.
In order to verify the stability of the samples DVS (Dynamic vapour sorption) measurements were carried out using the DVS Intrinsic SMS instrument. The weight change of the sample associated with the change in humidity in a chamber at constant temperature was determined. Each sample was positioned in the instrument and analysed at 25° C.±0.1 in a humidity range that ranges from 0% to 90% RH with increments of 10% RH, RH accuracy equal to ±1% RH. The sample is stabilized at 0% RH for 4 hours. The duration of the single stages is as a function of the stabilization of the weight: if the weight change remains less than 0.002 dm (%)/dt (min) for 10 min, it goes on to the next stage. The stabilization cannot last more than 6 hours and in that case it passes on to the next stage. The last stage contemplates the stabilization of the sample at 0% RH for 4 hours.
(§2) To check the stability of the samples DVS (Dynamic vapour sorption) measurements were made using the DVS Intrinsic SMS instrument. The weight change of the sample associated with the change in humidity in a chamber at constant temperature was determined. Each sample was positioned in the instrument and analysed at 25° C.±0.1 in a humidity range from 0% RH to 90% RH with increments of 10% RH, accuracy equal to ±1% RH. The sample is stabilized at 0% RH for 4 hours. The duration of the single stages is as a function of the stabilization of the weight: if the weight change remains less than 0.002 dm (%)/dt (min) for 10 min, it goes on to the next stage. The stabilization cannot last more than 6 hours and in that case it passes on to the next stage. The last stage contemplates the stabilization of the sample at 0% RH for 4 hours.

The nature of data set [2]: Reprecipitation of FI/FII 1:1 (w/w) in ethyl acetate, 48 hours at 25° C., XPRD of the solid. As to the method: Into a 2 liter jacketed reactor 1000 ml of ethyl acetate (EtOAc) is loaded, the mechanical stirrer is actuated setting the rate to 200 rpm and then 25 g of polymorphic form FI and 25 g of polymorphic form FII are slowly added. It is left under stirring for 48 hours at a temperature of 25° C.
It is filtered on buckner and the white solid obtained is washed with 50 ml of EtOAc (1 Volume with respect to the loaded total dry solid NaHDC polymorphic form FI and NaHDC polymorphic form FII).

The nature of data set [3]: Dynamic vapour sorption (DVS) analysis in isotherm at 40° C. The following applies: DVS isotherm 40° C. Here is the method:
as §1
as §2, with “Each sample is positioned in” for “Each sample was positioned in”, “analysed at 40° C.±0.1 in” for “analysed at 25° C.±0.1 in”, “from 0% to 90%” for “from 0% RH to 90%”, “10% RH, RH accuracy equal” for “10% RH, accuracy equal”, “of the weight, if the” for “of the weight: if the”

Data set [4] is described as follows: Thermal stability by DSC and XPRD at variable temperature. The following applies: for temperature up to which the form is stable: DSC / XPRD at variable temperature. As to the method: The thermal properties of the polymorphic forms described were obtained through differential scanning calorimetry (DSC). The DSC profiles were obtained with a heat flow instrument DSC 200 F3 Maia® (Netzsch). The DSC 200 F3 Maia® instrument was calibrated for temperature and enthalpy with an indium standard (melting point: 156.6° C.; ΔHf=28.45 Jg^−1). The samples were analysed according to the following conditions: • temperature range: 25-350° C.; • heating rate: 10° C./min; • sample-holder: perforated aluminium crucible; • gas: anhydrous nitrogen at a flow rate of 60 mL/min.
In order to determine the X-ray powder diffraction profiles (XPRD) a diffractometer Panalytical X'Pert Pro equipped with detector X'Celerator and X-ray tube (PW3373/00 Cu LFF DK312503) with current intensity 40 mA and voltage 40 kV was used. The instrument was calibrated with a silicon powder standard PANalytical640. The sample was positioned on a glass sample-carrier and analysed using the following parameters: • Scanning range(°): 3.0010-39.9997 • Data acquisition range(°): 0.0167 • Scanning mode: Continuous • Counter time (s): 12,700 • soller slits (rad): 0.04 • divergence slits: ¼ • anti-scatter slits: ½
For orientation: DSC measures the heat that a sample takes up or gives off during a temperature scan.

A short description of data set [5]: Stability tests according to guidelines ICH Q1A at 25° C./60% RH and 40° C./75% RH.
A short description of data set [6]: Stability of the polymorphic form in the formulation of a medicinal product. The following applies: inserted into the formulation of a medicinal product.
The mark [7] stands for this setting: listed as mixture of forms of NaHDC.

From US9580458B2, “Polymorphic form of sodium hyodeoxycholate (NaHDC) and its preparation process” (PRODOTTI CHIMICI E […].P.A., priority 2013, dated 2017) come the findings set out here.

“Also recorded” adds a separate entry of the source.

For `C[C@H](CCC(=O)[O-])[C@H]1CC[C@H]2[C@@H]3C[C@H](O)[C@@H]4C[C@H](O)CC[C@]4(C)[C@H]3CC[C@]12C.[Na+]` [NaHDC mixture, sodium 3α,6α-dihydroxy-5β,-cholan-24-oate], in data set [1], the “water still contained at the inflection at about 40% RH in desorption” value is “about 18%”, the “weight change preserved in desorption up to 50% RH” value (shortened to “weight change preserved … to 50% RH”) is “about 34%”, the “change in weight in sorption at 20% RH” value is recorded as “about 3%” and the “weight change in sorption at 90% RH” value was “about 35%”. For the same compound, in data set [1] (setting [7]), the “water still contained at the inflection at about 40% RH in desorption” value is listed as “about 18%”, the “change in weight in sorption at 20% RH” value is “about 3%” and the “weight change in sorption at 70% RH” value was 15%.

On to `C[C@H](CCC(=O)[O-])[C@H]1CC[C@H]2[C@@H]3C[C@H](O)[C@@H]4C[C@H](O)CC[C@]4(C)[C@H]3CC[C@]12C.[Na+]` [amorphous form of NaHDC, sodium 3α,6α-dihydroxy-5β,-cholan-24-oate], for which, in data set [1], the “weight change at 0% RH in desorption” value is “weight that is less than the starting weight”, the “water still contained at the inflection at about 40% RH in desorption” value is recorded as “about 17%”, the “weight change preserved … to 50% RH” value was “about 34%” and the “weight change in sorption at 30% RH” value is “about 6%”. Further, in data set [1], the “weight change in sorption at 70% RH” value stood at 22% and the “weight change in sorption at 90% RH” value is on record as “about 35%”.

On to `C[C@H](CCC(=O)[O-])[C@H]1CC[C@H]2[C@@H]3C[C@H](O)[C@@H]4C[C@H](O)CC[C@]4(C)[C@H]3CC[C@]12C.[Na+]` [polymorphic form FI, sodium 3α,6α-dihydroxy-5β,-cholan-24-oate], for which the “interconversion of the polymorphic form on reprecipitation” value in data set [2] (FI and FII 1:1 weight/weight, ethyl acetate, 48 hours, room temperature (20-25° C.)) is “completely converts into the polymorphic form FII; also recorded: interconverts into the polymorphic form FII”. Also, in data set [1], the “weight change at 0% RH in desorption” value is recorded as “zero”, the “water still contained at the inflection at about 40% RH in desorption” value was “about 18%”, the “weight change preserved … to 50% RH” value is “about 34%” and the “weight change in sorption at 30% RH” value is “about 2%”. Besides, the “weight change in sorption at 90% RH” value in data set [1] is listed as “about 35%”. The “weight change at 0% RH in desorption” value in data set [3] (desorption) is on record as “zero”. The “change in weight at the plateau at 50-40% RH in desorption” value in data set [3] (desorption, 50-40% RH) is recorded as “about 17%”. For the same compound, the “weight change in sorption at 30% RH” value in data set [3] (sorption, 30% RH) was “about 2%”. In addition, in data set [3] (sorption), the “weight change in sorption at 70% RH” value is 8% and the “weight change in sorption at 90% RH” value is “about 43%”. The “temperature up to which the form is stable” value in data set [4] is 280 °C.

Consider `C[C@H](CCC(=O)[O-])[C@H]1CC[C@H]2[C@@H]3C[C@H](O)[C@@H]4C[C@H](O)CC[C@]4(C)[C@H]3CC[C@]12C.[Na+]` [polymorphic form FII, sodium 3α,6α-dihydroxy-5β,-cholan-24-oate], for which the “stability with regard to humidity in ICH Q1A tests” value in data set [5] is “surprising and unforeseeable stability with regard to humidity both at 25 °C and at 40 °C”. Also, the “stability over time in the formulation (interconversion into other polymorphic forms)” value in data set [6] was “stable over time”. Also, in data set [2] (room temperature), the “thermodynamic stability among the forms” value was “most thermodynamically stable one at room temperature and up to 260 °C; also recorded: most thermodynamically stable form at room temperature”. Further, in data set [1], the “weight change at 0% RH in desorption” value is given as “zero”, the “water still contained at the inflection at about 40% RH in desorption” value is “about 18%”, the “weight change preserved … to 50% RH” value is recorded as “about 34%” and the “weight change in sorption at 70% RH” value is listed as “less than 2%”. The “weight change in sorption at 90% RH” value in data set [1] was “about 35%”. The hygroscopic behaviour result in data set [1] (humidity sorption cycle in isotherm at 25° C. and at 40° C. (FIGS. 10-13, 27, 28, 58)) is given as “non-hygroscopic”. Further, the “weight change at 0% RH in desorption” value in data set [3] (desorption) was “about 6%”. Also, the “shape of the desorption curve at 50-40% RH” value in data set [3] (desorption, 50-40% RH) is “plateau”. Further, in data set [3] (sorption), the “relative humidity up to which the sample is stable in sorption” value is listed as “about 70 % RH”, the “weight change in sorption at 70% RH” value is listed as “less than 2%” and the “weight change in sorption at 90% RH” value is reported as “about 45%”. Also, the “temperature up to which the form is stable” value in data set [4] came to 260 °C. For the same compound, the “temperature of conversion into the polymorphic form FI on heating” value in data set [4] (heating, solid-solid conversion into form FI) was determined as 280 °C.
